Patent US8686028B2, “Substituted benzfurochromenes and related compounds for the prevention and treatment of bone related disorders” (Council of Scientific & Industrial Research, priority 2008, dated 2014)
Entries after “also recorded” stand apart in the source; their conditions may differ. Values belong to the compound of their own block, whether it stands above or below them.

What was measured:
[1] = system: Calvarial osteoblasts; assay: Alkaline phosphatase (ALP) activity for osteoblast differentiation, calvarial osteoblasts; assay type: cell-based, rat; conditions: calvarial osteoblasts, 48 h
Procedure: (§1) Neonatal rat calvarial cell cultures are prepared as described previously (Endocrinology 145:3451) using slight modification. Briefly, for primary osteoblast cell cultures, frontal and parietal bones from Sprague-Dawley rat neonates (1-3 day old) are digested in 0.1% collagenase/0.1% dispase in α-MEM to obtain 5 sequential digests. The second through fifth digests are combined and grown to confluence at 37° C. and 5% CO2 in air in α-MEM, supplemented with 10% fetal bovine serum (FBS), 2 mM glutamine, 100 U/ml penicillin-streptomycin, Non-essential amino acid solution and sodium pyruvate.
70 to 80% confluent Calvarial osteoblasts were treated with μM S006-1709 for 48 h in the presence of ascorbate and glycerophosphate. At the end of incubation period, total ALP activity was measured with a method using p-nitrophenylphosphate (PNPP) as substrate. The reaction mixture contained diethanolamine buffer (1 mol/L, pH 9.8), 0.5 mmol/L MgCl2.6H2O, and 10 mmol/L PNPP. ALP activity was measured by taking OD of the amount of colored product formed by the dephosphorylation of PNPP at 405 nm. […] In addition, the effect of S006-1709 on mineralization of calvarial osteoblasts was studied.
(§2) We then studied its effect in osteoblast differentiation in both calvarial and bone marrow osteoblasts. Confluent calvarial osteoblasts (70 to 80%) were treated with S006-1710 for 48 h in the presence of ascorbate and glycerophosphate at concentrations ranging from 10^−16M to 10^−6M. At the end of incubation period, total ALP activity was measured with the same method used previously using p-nitrophenylphosphate (PNPP) as substrate.
70 to 80% confluent Calvarial osteoblasts were treated with S007-1351 for 48 h in the presence of ascorbate and glycerophosphate. At the end of incubation period, total ALP activity was measured with a method using p-nitrophenylphosphate (PNPP) as substrate. The reaction mixture contained diethanolamine buffer (1 mol/L, pH 9.8), 0.5 mmol/L MgCl2.6H2O, and 10 mmol/L PNPP. ALP activity was measured by taking OD of the amount of colored product formed by the dephosphorylation of PNPP at 405 nm.
70 to 80% confluent calvarial osteoblasts were treated with S007-1352 for 48 h in the presence of ascorbate and glycerophosphate at concentrations ranging from 10^−12M to 10^−6 M. At the end of incubation period, total ALP activity was measured with the same method used previously using p-nitrophenylphosphate (PNPP) as substrate.

[2] = system: 3T3-L1 cells; assay: Anti-adipogenic effect (Oil Red O) in 3T3-L1 cells; assay type: cell-based, mouse
Procedure: The best characterized model of adipogenesis in vitro is the 3T3-L1 cell line, a substrain of Swiss 3T3 mouse cell line. 3T3-L1 cells propagated under normal conditions have a fibroblastic phenotype. However, when treated with a combination of dexamethasone, isobutylmethylxanthine (IBMX or MIX) and insulin, 3T3-L1 cells adopt a rounded phenotype and within 5 days begin to accumulate lipids intracellularly in the form of lipid droplets.
3T3-L1 cells were plated in 48-well plates 40,000 cells/well. The cells were incubated in DMEM containing fetal calf serum for 2 days until the cells become confluent. The cells were then incubated with Adipogenesis initiation media which contains DMEM with 10% FCS, IBMX and dexamethasone for 48 hrs at 37° C., 5% CO2. After two days the media was replaced with Adipogenesis Progression media which contains DMEM/10% FCS and insulin for 48 hrs at 37° C., 5% CO2, Media was again changed gently to Adipogenesis maintenance media for 48 hrs at 37° C., 5% CO2. At the end of eight days of experiment the cells were fixed and then stained with Oil Red O which stains lipid droplets. The dye was extracted and extracted dye was transferred to a 96-well plate and absorbance of extracted Oil Red O was measured in a plate reader at 490 nm.
Compounds S006-1709, S007-1351-53, S007-1495 and S007-1500 were tested in vitro in 3T3L1 cell line at two concentrations 10^−10 M and 10^−12M. FIG. 8A depicts the adipocytes formed at the end of the 8 day experiment. The fixed cells were stained with Oil Red O. The dye was then extracted and quantified.

[3] = system: Immature 21 d old female SD rat; assay: In vivo efficacy, BMD in immature female SD rats; conditions: for BMD % increase versus vehicle control, FEMUR Global / BMD % increase versus vehicle control, FEMUR Mid-shaft / BMD % increase versus vehicle control, FEMUR Neck / BMD % increase versus vehicle control, LUMBER VERTEBRAE Global / BMD % increase versus vehicle control, LUMBER VERTEBRAE L-1 / BMD % increase versus vehicle control, LUMBER VERTEBRAE L-2 / BMD % increase versus vehicle control, LUMBER VERTEBRAE L-3 / BMD % increase versus vehicle control, LUMBER VERTEBRAE L-4 / BMD % increase versus vehicle control, TIBIA Global / BMD % increase versus vehicle control, TIBIA Proximal / BMD % increase versus vehicle control, TIBIA TFSP: one month
Procedure: Immature 21 d old female SD rat model was chosen, animals were randomized into four groups and treated with a daily dose of test agent or vehicle for one month and autopsied on day 31.
[…], the animals were shifted to metabolic cage for acclaimatization for 24 h with food and water. Post acclaimatization animals were further left in metabolic cage for 24 h with water but no food. Blood and urine samples were collected after 24 h. Various biochemical parameters like serum calcium, serum phosphorus, serum osteocalcin, serum alkaline phosphatase (ALP) were evaluated. The animals were autopsied on day 31 and lumbar vertebrae, femur and tibia bones were isolated, cleaned and fixed in 70% ethanol in saline and stored at 4° C. until BMD measurement. Initial and final body weight and uterine weight at autopsy were recorded. BMD measurements of region of interest (lumbar: global, L1-L4; femur: global, neck and mid-shaft; tibia: global, proximal and tibio-fibula junction point) was performed using a bone densitometer (Model 4500 Elite, Hologic) fitted with commercially available software (QDR 4500 ACCLAIM series) for a fan-beam DXA system that permits determination of bone densitometry and measurement of body composition in small animals in vivo.

[4] = system: ovariectomized immature female rats; assay: Estrogenicity, uterine fresh weight in ovariectomized immature female rats; assay type: in vivo, rat; conditions: 10 mg/Kg oral; for Estrogenic Activity, % (second line of cell): relative to vehicle; for Estrogenic Activity (uterine fresh weight): three consecutive days, vehicle 16.46
Procedure: (§3) 21 day old immature female rats (25-30 grams) were ovariectomized and given 7 days post-operative rest. Thereafter they were treated orally with the test agent (10 mg/Kg body weight) or with vehicle or Ethynyl estradiol, the reference standard for three consecutive days. For anti-estrogenicity, other than the test chemical, ethynyl estradiol (0.01 mg/kg) was given at 15 minutes interval before the test chemical. Autopsy was done 24 h after last treatment and uterine fresh weight was taken.

[5] = system: Calvarial osteoblasts; assay: Mineralization of calvarial osteoblasts (Alizarin red extraction); assay type: cell-based, rat; conditions: 10^−12 M and 10^−10 M
[6] = system: ovariectomized immature female rats; assay: Anti-estrogenicity, uterine fresh weight with ethynyl estradiol co-treatment; assay type: in vivo, rat; conditions: 10 mg/Kg oral plus ethynyl estradiol 0.01 mg/kg; for Anti-Estrogenic Activity, % (second line of cell): relative to ethynyl estradiol
Procedure: as §3

[7] = system: Calvarial osteoblast cells; assay: MTT cell proliferation assay; assay type: cell-based, rat; conditions: 10^−10 M to 10^−6M, 24 hrs
Procedure: as §1
MTT [3-(4,5-dimethylthiazol-2-yl)-2,5-diphenyltetrazolium bromide] assay, first described by Mosmann in 1983, is based on the ability of a mitochondrial dehydrogenase enzyme from viable cells to cleave the tetrazolium rings of the pale yellow MTT and form a dark blue formazan crystals which is largely impermeable to cell membranes, thus resulting in its accumulation within healthy cells. Solubilisation of the cells by the addition of a detergent results in the liberation of the crystals which are solubilized. The number of surviving cells is directly proportional to the level of the formazan product created. The color can then be quantified using a simple colorimetric assay. The results can be read on a multiwell scanning spectrophotometer (Mosmann T. Rapid colorimetric assay for cellular growth and survival: application to proliferation and cytotoxicity assays. J Immunol Methods. 1983 Dec. 16; 65(1-2):55-63).
Calvarial osteoblast cells plated at a density of 2.0×10^3 cells/200 ul in 96 wells plates. Cells were grown to 60% confluency and then treated with following compounds S006-1709, S006-1710, 5006-1711, S006-1713 and; S006-1714 at concentrations ranging from 10^−10 M to 10^−6M for 24 hrs. After treatment media was removed and 10 mM MTT was added solution in phenol red free DMEM media. After an incubation of 4 hrs the MTT solution was removed. Blue colored crystals were formed which were dissolved in DMSO and absorbance was read on ELISA plate reader at 570 nm wavelength.

[8] = system: bone marrow osteoblasts; assay: Mineralization of bone marrow osteoblasts (Alizarin red extraction); assay type: cell-based; conditions: 10^−12M and 10^−10 M, 18 d bone marrow culture
Text: In addition, the effect of S006-1709 on mineralization of bone marrow osteoblasts was also studied.
In addition, the effect of S006-1710 on mineralization of bone marrow osteoblasts was also studied.

[9] = system: bone marrow derived osteoblasts; assay: ALP activity in bone marrow derived osteoblasts; assay type: cell-based; conditions: 10^−16M to 10^−6M
Procedure: as §2

osteoblast ALP activity vs vehicle control ([1]; 10^−12M to 10^−6M): stimulated ALP activity
osteoblast ALP activity vs vehicle control ([1]; 10^−12M to 10^−6M, listed as S-007-1500): showed stimulation in ALP activity
Structure (SMILES): C=CCOc1ccc2c(c1C)OCC1c3ccccc3OC21 (stereo not shown) [Compound S007-1500, 3-Allyloxy-4-methyl-6a,11a-dihydro-6H-benzo[4,5]furo[3,2-c]chromene]
effect on adipogenesis ([2]; 3T3L1, at different concentrations (10^−10 M and 10^−12M tested)): significantly inhibited adipogenesis
BMD % increase versus vehicle control, FEMUR Global ([3]; 1 mg/kg daily): +27%
BMD % increase versus vehicle control, FEMUR Mid-shaft ([3]; 1 mg/kg daily): +35%
BMD % increase versus vehicle control, FEMUR Neck ([3]; 1 mg/kg daily): +16%
BMD % increase versus vehicle control, LUMBER VERTEBRAE Global ([3]; 1 mg/kg daily): +13%
BMD % increase versus vehicle control, LUMBER VERTEBRAE L-1 ([3]; 1 mg/kg daily): +6%
BMD % increase versus vehicle control, LUMBER VERTEBRAE L-2 ([3]; 1 mg/kg daily): +21%
BMD % increase versus vehicle control, LUMBER VERTEBRAE L-3 ([3]; 1 mg/kg daily): +5.5%
BMD % increase versus vehicle control, LUMBER VERTEBRAE L-4 ([3]; 1 mg/kg daily): −8.5%
BMD % increase versus vehicle control, TIBIA Global ([3]; 1 mg/kg daily): +35%
BMD % increase versus vehicle control, TIBIA Proximal ([3]; 1 mg/kg daily): +16.5%
BMD % increase versus vehicle control, TIBIA TFSP ([3]; 1 mg/kg daily): +70%
BMD % increase versus vehicle control, FEMUR Global ([3]; 5 mg/kg daily): +25%
BMD % increase versus vehicle control, FEMUR Mid-shaft ([3]; 5 mg/kg daily): +30%
BMD % increase versus vehicle control, FEMUR Neck ([3]; 5 mg/kg daily): +26%
BMD % increase versus vehicle control, LUMBER VERTEBRAE Global ([3]; 5 mg/kg daily): +17%
BMD % increase versus vehicle control, LUMBER VERTEBRAE L-1 ([3]; 5 mg/kg daily): +7%
BMD % increase versus vehicle control, LUMBER VERTEBRAE L-2 ([3]; 5 mg/kg daily): +14.5%
BMD % increase versus vehicle control, LUMBER VERTEBRAE L-3 ([3]; 5 mg/kg daily): +25%
BMD % increase versus vehicle control, LUMBER VERTEBRAE L-4 ([3]; 5 mg/kg daily): +14%
BMD % increase versus vehicle control, TIBIA Global ([3]; 5 mg/kg daily): +37%
BMD % increase versus vehicle control, TIBIA Proximal ([3]; 5 mg/kg daily): +33%
BMD % increase versus vehicle control, TIBIA TFSP ([3]; 5 mg/kg daily): +69%
BMD in Femur and Tibia (in words) ([3]; both doses of 1.0 and 5.0 mg/kg): significant increase
estrogenicity (in words) [4]: devoid of any estrogenicity

osteoblast ALP activity vs vehicle control ([1]; 10^−12M to 10^−6M): significant increase
melting point: 220 to 222 °C
Structure (SMILES): COc1ccccc1-c1coc2c(O)c(O)ccc2c1=O [Compound S007-1352, 7,8-Dihydroxy-3-(2-methoxy-phenyl)-chromen-4-one]
effect on adipogenesis ([2]; 3T3L1, both concentrations (10^−10 M and 10^−12M)): inducers of adipogenesis

osteoblast ALP activity vs vehicle control ([1]; 10^−16M to 10^−6M): significant increase
Structure (SMILES): COc1ccccc1-c1coc2cc(O)ccc2c1=O [Compound S006-1710, 7-Hydroxy-3-(2-methoxy-phenyl)-chromen-4-one]
mineralization of calvarial osteoblasts (nascent calcium deposition, Alizarin red) [5]: stimulate mineralization
Anti-Estrogenic Activity (uterine fresh weight) [6]: 79.9
anti-estrogenicity (in words) [6]: not found to be anti-estrogenic
Anti-Estrogenic Activity, % (second line of cell) [6]: 19%
effect on osteoblast proliferation (MTT) [7]: no osteoblast proliferating action
mineralization of bone marrow osteoblasts (nascent calcium deposition, Alizarin red) [8]: stimulate mineralization; also recorded: significant increase
estrogenicity (in words) [4]: estrogenic
Estrogenic Activity, % (second line of cell) [4]: 446%
Estrogenic Activity (uterine fresh weight) [4]: 89.96

osteoblast ALP activity vs vehicle control ([1]; 10^−16M to 10^−6M): stimulated ALP activity
melting point: 196 to 198 °C
Structure (SMILES): O=c1c(-c2ccccc2O)coc2cc(O)ccc12 [Compound S006-1711, 7-Hydroxy-3-(2-hydroxy-phenyl)-chromen-4-one]
mineralization of calvarial osteoblasts (nascent calcium deposition, Alizarin red) [5]: stimulated mineralization
Anti-Estrogenic Activity (uterine fresh weight) [6]: 85.16
anti-estrogenicity (in words) [6]: not found to be anti-estrogenic
Anti-Estrogenic Activity, % (second line of cell) [6]: 13%
effect on osteoblast proliferation (MTT) [7]: did not have any effect
mineralization of bone marrow osteoblasts (nascent calcium deposition, Alizarin red) [8]: stimulated mineralization
estrogenicity (in words) [4]: estrogenic
Estrogenic Activity, % (second line of cell) [4]: 192%
Estrogenic Activity (uterine fresh weight) [4]: 48.13
ALP activity in bone marrow derived osteoblasts [9]: stimulated ALP activity
